In one assay the test system is pancreas. Particulars: cited from earlier work.
The test system of assay [1] is Cardiac Muscle Ischemia and Reperfusion. The experiment in a line: LAD coronary artery occlusion (25 min) and reperfusion (2 h) in anesthetized rats. The class given is in vivo, Wistar rats. How it is done:
Wistar rats were anesthetized with thiopentone sodium. The left anterior descending (LAD) coronary artery was occluded. After 25 minutes of occlusion, reperfusion was allowed for 2 hours. This animal model has been described previously. Zacharowski, et al. […] Br. J. Pharmacol. 128, 945–952.
GLP-1 (1.5 microgram/kg/min) was infused into anesthetized rats (n=10), commencing 10 minutes prior to reperfusion and continuing throughout the 2-hour reperfusion. Controls were sham operated with no occlusion (n=7), LAD occlusion+reperfusion+administration of saline (n=12), and LAD occlusion and reperfusion with vehicle (10 mM sodium acetate, 5.05% D-mannitol, pH 4.5, 1.5 mL/kg/hour; n=10).
Following reperfusion, the coronary artery was reoccluded, and Evans Blue dye (4 ml, 2% w/v) was injected into the left ventricle of the heart via a right carotid artery cannula. Evans Blue stains the perfused myocardium, while the occluded vascular bed remains uncolored. Animals were euthanized by anesthetic overdose and the hearts were removed for examination. Hearts were sectioned and the right ventricular wall was removed. The area at risk (pink) was separated from the non-ischemic tissue (blue). The area at risk (pink) was then cut into smaller pieces and stained with p-nitroblue tetrazolium (NBT; 0.5 mg/ml) for 20 min. at 37° C. In the presence of intact dehydrogenase enzyme systems (viable myocardium), NBT forms a dark blue compound. Areas of necrosis lack the enzyme and remain unstained. Tissue was separated according to staining and weighed to determine infarct size as a percentage of the area at risk.

The test system is the same in assay [2]. The experiment in a line: Left circumflex coronary occlusion (10 min) and reperfusion in dogs. Format: in vivo. The protocol: Two dogs were studied at baseline before, during, and for 6 hours after a 10-minute complete left circumflex coronary (LCx) occlusion. Each dog underwent occlusion/reperfusion in the presence and absence of GLP-1 infusion for […], beginning 1 minute prior to reperfusion.

The text below walks through data of patent US7259136B2, “Compositions and methods for treating peripheral vascular disease” (Amylin Pharmaceuticals, Inc., priority 1999, dated 2007).

Where no end group is shown, it is not given here.

Turning to “GLP-1(9-36)amide: DPP IV inactivation product of GLP-1(7-36)amide, SEQ ID NO:6 (EGTFTSDVSSYLEGQAAKEFIAWLVKGR-NH2)”, in the assay with pancreas, the “stimulation of production or release of insulin from the pancreas” value is reported as “do not stimulate production or release of insulin”.

As for “GLP-1(9-37): DPP IV inactivation product of GLP-1(7-37), SEQ ID NO:5 (EGTFTSDVSSYLEGQAAKEFIAWLVKGRG; mammalian)”, the “stimulation of production or release of insulin from the pancreas” value in the assay with pancreas is on record as “do not stimulate production or release of insulin”.

As to glucagon-like peptide-1 [GLP-1], the “infarct size as a percentage of the area at risk” value in assay [1] (GLP-1 1.5 microgram/kg/min infusion from 10 min prior to reperfusion throughout 2-hour reperfusion, n=10) is reported as 31+/−4 % of the area at risk. In addition, the “reduction in infarct size compared with the vehicle group” value in assay [1] (GLP-1 1.5 microgram/kg/min infusion, p<0.05) is reported as “approximately 33%”. For the same substance, in assay [1] (GLP-1 infusion), the hemodynamics entry is reported as “significantly improved hemodynamics”. Further, the stunning period entry in assay [2] (dogs, GLP-1 during reperfusion after subcritical ischemia) is “significantly reduced the stunning period”. For the same substance, the “recovery of ventricular wall regional dysfunction” value in assay [2] (two dogs, GLP-1 infusion for 24 hours beginning 1 minute prior to reperfusion, after 10 minutes of coronary artery occlusion) is “enhanced the recovery of ventricular wall regional dysfunction”.
